Values of other authors in US20110195946A1, “HIGH SOLID D[…]” (priority 2008, published 2011).

Assays:
[1] = acute oral mammalian toxicity
[2] = acute inhalation toxicity

| Compound | LD50 [1] [mg/kg] | LC50 (4 h) [2] [µg/mL] |
| --- | --- | --- |
| N#Cc1c(-c2ccc(Cl)cc2)[nH]c(C(F)(F)F)c1Br [Tralopyril, 4-bromo-2-(4-chlorophenyl)-5-(trifluoromethyl)-1H-pyrrole-3-carbonitrile] | 28.7 |  |
| [O-][n+]1ccccc1[S][Zn][S]c1cccc[n+]1[O-] [zinc pyrithione, bis(2-pyridylthio)zinc 1,1′ dioxide] |  | 1.03 |
